Reference: patent US20250145561A1, “4-SUBSTITUTED-PHENYL ACETAMIDES AND ARYLUREAS AS AGONISTS FOR THE ORPHAN RECEPTOR GPR88” (RESEARCH TRIANGLE INSTITUTE, priority 2022, published 2025)

Target: T1, GPR88 (Homo sapiens, UniProt Q9GZN0)
T1 construct: expressed in transfected cells
Assay: Lance Ultra TR-FRET cAMP assay using stable PPLS-HA-GPR88 CHO cells
Assay type: cell-based
Conditions: for Emax: CHO; for EC50 / cAMP pEC50: stable PPLS-HA-GPR88 CHO cells; for EC50: value in parentheses beside pEC50; for cAMP pEC50: 300 nM forskolin, mean ± standard error of at least three independent experiments in duplicate
Description: The compounds of the present disclosure offer potent agonism to the orphan receptor GPR88. As such, the compounds of the present disclosure provide therapeutic potential for the treatment of striatal associated disorders such as Parkinson's disease, schizophrenia, and alcohol addiction. All compounds were evaluated for the GPR88 agonist activity in the inventors' previously established in vitro GPR88 Lance TR-FRET cAMP assay. See, supra, Jin et al., 2018, Rahman et al., 2020, and Rahman et al., 2021. As will be described, the TR-FRET signal was converted to fmol cAMP by interpolating from the standard cAMP curve. Fmol cAMP was plotted against the log of compound concentration and data were fit to a three-parameter logistic curve to generate maximum response (Emax) and EC50 values.
Lance™ Ultra cAMP assay using stable PPLS-HA-GPR88 CHO cells. All cAMP assays were performed using the inventors' previously published methods. […] ACS Chemical Neuroscience 2016, 7, 1418-1432, which is incorporated by reference herein with regard to such teaching. Stimulation buffer containing 1× Hank's Balanced Salt Solution (HBSS), 5 mM HEPES, 0.1% BSA stabilizer, and 0.5 mM final IBMX was prepared and titrated to pH 7.4 at room temperature. Serial dilutions of the test compounds (5 μL) and 300 nM forskolin (5 μL), both prepared at 4× the desired final concentration in 2% DMSO/stimulation buffer, were added to a 96-well white ½ area microplate (PerkinElmer). A cAMP standard curve was prepared at 4× the desired final concentration in stimulation buffer and 5 μL was added to the assay plate. Stable PPLS-HA-GPR88 CHO cells were lifted with versene and spun at 270 g for 10 minutes. The cell pellet was resuspended in stimulation buffer and 4,000 cells (10 μL) were added to each well except wells containing the cAMP standard curve. After incubating for 30 min at room temperature, Eu-cAMP tracer and uLIGHT-anti-cAMPworking solutions were added per the manufacturer's instructions. After incubation at room temperature for 1 hour, the TR-FRET signal (ex 337 nm) was read on a CLARIOstar multimode plate reader (BMG Biotech, Cary, NC).
Data Analysis. The TR-FRET signal (665 nm) was converted to fmol cAMP by interpolating from the standard cAMP curve. Fmol cAMP was plotted against the log of compound concentration and data were fit to a three-parameter logistic curve to generate EC50 values (Prism, version 6.0, GraphPad Software, Inc., San Diego, CA).

T1 sequence (Q9GZN0 whole entry): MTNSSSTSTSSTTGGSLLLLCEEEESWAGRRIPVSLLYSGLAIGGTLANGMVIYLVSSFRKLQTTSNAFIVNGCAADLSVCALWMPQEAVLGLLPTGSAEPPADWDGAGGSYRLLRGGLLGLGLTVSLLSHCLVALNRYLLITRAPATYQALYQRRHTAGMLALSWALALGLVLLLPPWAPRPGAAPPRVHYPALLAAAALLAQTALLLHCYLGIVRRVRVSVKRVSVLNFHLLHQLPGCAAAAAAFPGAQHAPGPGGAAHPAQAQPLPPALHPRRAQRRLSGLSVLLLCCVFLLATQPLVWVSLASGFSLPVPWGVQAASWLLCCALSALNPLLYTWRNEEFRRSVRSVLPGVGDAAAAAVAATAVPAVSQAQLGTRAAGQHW

| Compound | Emax | EC50 | cAMP pEC50 |
| --- | --- | --- | --- |
| CCCc1ccc(-c2ccc(C(C(=O)N[C@H](C)c3ccccc3)C(=O)OC)cc2)cc1 (mixture of isomers) [Compound 28, Methyl 2-{[(1 R)-1-Phenylethyl]carbamoyl}-2-{4′-propyl-[1,1′-biphenyl]-4-yl}acetate] | 99 ± 6% | 1290 nM | – |
| C[C@@H](NC(=O)[C@H](CO)c1ccc(-c2ccc(CC3CC3)cc2)cc1)c1ccccc1 [Compound 33, (2S)-2-[4′-(Cyclopropylmethyl)-[1,1′-biphenyl]-4-yl]-3-hydroxy-N-[(1 R)-1-phenylethyl]propenamide] | 87 ± 5% | 263 nM | – |
| CCCC(C)COc1ccc([C@@H](CO)C(=O)NCc2ccccc2)cc1 (stereo partly drawn) [Compound 15, (2S)—N-Benzyl-3-hydroxy-2-{4-[(2-methylpentyl)oxy]phenyl}propenamide] | 99 ± 9% | – | – |
| CCCC(C)COc1ccc([C@@H](CO)C(=O)N[C@H](COC)c2ccccc2)cc1 (stereo partly drawn) [Compound 18, (2S)-3-Hydroxy-N-[(1 S)-2-methoxy-1-phenylethyl]-2-{4-[(2-methylpentyl)oxy]phenyl}propenamide] | 91 ± 4% | – | – |
| CCCC(C)COc1ccc([C@@H](CO)C(=O)NC(C)(C)c2ccccc2)cc1 (stereo partly drawn) [Compound 19, (2S)-3-Hydroxy-2-{4-[(2-methylpentyl)oxy]phenyl}-N-(2-phenylpropan-2-yl)propenamide] | 83 ± 2% | 1260 nM | 5.90 ± 0.05 |
| CCCC(C)COc1ccc([C@@H](CO)C(=O)NC2(c3ccccc3)CC2)cc1 (stereo partly drawn) [Compound 20, (2S)-3-Hydroxy-2-{4-[(2-methylpentyl)oxy]phenyl}-N-(1-phenylcyclopropyl)propenamide] | 81 ± 8% | – | – |
| CCCc1ccc(-c2ccc(CC(=O)N[C@H](C)c3ccccc3)cc2)cc1 [Compound 26, N-[(1 R)-1-Phenylethyl]-2-{4′-propyl-[1,1′-biphenyl]-4-yl}acetamide] | 95 ± 5% | 257 nM | – |
| CCCc1ccc(-c2ccc(N(C[C@@H](N)[C@@H](C)CC)C(=O)N[C@@H](C)c3ccco3)cc2)cc1 [Compound 49, 1-[(2S,3S)-2-Amino-3-methylpentyl]-3-[(1 S)-1-(furan-2-yl)ethyl]-1-{4′-propyl-[1,1′-biphenyl]-4-yl}urea] | 115 ± 5% | 2570 nM | – |
| CCCC#Cc1ccc([C@@H](CO)C(=O)N[C@H](C)c2ccccc2)cc1 [Compound 36, (2S)-3-Hydroxy-2-[4-(pent-1-yn-1-yl)phenyl]-N-[(1 R)-1-phenylethyl]propenamide] | 92 ± 7% | 204 nM | – |
| CCCc1ccc(-c2ccc(N(C[C@@H](N)[C@@H](C)CC)C(=O)N[C@H]3C[C@@H]3c3ccccc3)cc2)cc1 [Compound 45, 1-[(2S,3S)-2-Amino-3-methylpentyl]-3-[(1 S,2R)-2-phenylcyclopropyl]-1-(4′-propyl-[1,1′-biphenyl]-4-yl}urea] | 110 ± 5% | 2290 nM | – |
| CCCc1ccc(-c2ccc(N(C[C@@H](N)[C@@H](C)CC)C(=O)NCc3ccccc3)cc2)cc1 [Compound 40, 3-[(2S,3S)-2-Amino-3-methylpentyl]-1-benzyl-3-{4′-propyl-[1,1′-biphenyl]-4-yl}urea] | 97 ± 4% | 2000 nM | – |
| CCCC(C)COc1ccc([C@@H](CO)C(=O)N[C@H](C)c2ccccc2C)cc1 (stereo partly drawn) [Compound 9, (2S)-3-Hydroxy-2-{4-[(2-methylpentyl)oxy]phenyl}-N-[(1 R)-1-(2-methylphenyl)ethyl]propenamide] | 48 ± 8% | – | – |
| CCCC(C)COc1ccc([C@H](CO)C(=O)N[C@H](C)c2ccccc2)cc1 (stereo partly drawn) [Compound 3, (2R)-3-Hydroxy-2-{4-[(2-methylpentyl)oxy]phenyl}-N-[(1 R)-1-phenylethyl]propanamide] | 77 ± 4% | – | – |
| CCCC(C)COc1ccc([C@@H](CO)C(=O)N[C@H](C)c2ccco2)cc1 (stereo partly drawn) [Compound 22, (2S)—N-[(1 R)-1-(Furan-2-yl)ethyl]-3-hydroxy-2-{4-[(2-methylpentyl)oxy]phenyl}propenamide] | 108 ± 6% | – | – |
| CCCc1ccc(-c2ccc(N(C[C@@H](N)[C@@H](C)CC)C(=O)N[C@@H]3C[C@H]3c3ccccc3)cc2)cc1 [Compound 44, 1-[(2S,3S)-2-Amino-3-methylpentyl]-3-[(1 R,2S)-2-phenylcyclopropyl]-1-(4′-propyl-[1,1′-biphenyl]-4-yl}urea] | – | – | Inactive |
| CCCc1ccc(-c2ccc(N(C[C@@H](N)CC(C)C)C(=O)N[C@@H](C)c3ccccc3)cc2)cc1 [Compound 50, 3-[(2S)-2-Amino-4-methylpentyl]-1-[(1 S)-1-phenylethyl]-3-{4′-propyl-[1,1′-biphenyl]-4-yl}urea] | 112 ± 8% | 1200 nM | – |
| CC[C@H](C)COc1ccc([C@@H](CO)C(=O)N[C@H](C)c2ccccc2)cc1 [Compound 7, (2S)-3-Hydroxy-2-{4-[(2S)-2-methylbutoxy]phenyl}-N-[(1 R)-1-phenylethyl]propenamide] | 88 ± 7% | 2000 nM | – |
| CCCc1ccc(-c2ccc(N(C[C@@H](N)[C@@H](C)CC)C(=O)NC3(c4ccccc4)CC3)cc2)cc1 [Compound 46, 1-[(2S,3S)-2-Amino-3-methylpentyl]-3-(1-phenylcyclopropyl)-1-{4′-propyl-[1,1′-biphenyl]-4-yl}urea] | 91 ± 4% | 1860 nM | – |
| CCCC(C)COc1ccc([C@@H](CO)C(=O)Nc2ccccc2)cc1 (stereo partly drawn) [Compound 14, (2S)-3-Hydroxy-2-{4-[(2-methylpentyl)oxy]phenyl}-N-phenylpropanamide] | – | – | Inactive |
| CCCc1ccc(-c2ccc(N(C[C@@H](N)[C@@H](C)CC)C(=O)N[C@@H](CC)c3ccccc3)cc2)cc1 [Compound 47, 3-[(2S,3S)-2-Amino-3-methylpentyl]-1-[(1 S)-1-phenylpropyl]-3-{4′-propyl-[1,1′-biphenyl]-4-yl}urea] | 103 ± 4% | 2000 nM | – |
| C[C@@H](NC(=O)[C@H](CO)c1ccc(-c2ccc(C3CCC3)cc2)cc1)c1ccccc1 [Compound 32, (2S)-2-{4′-Cyclobutyl-[1,1′-biphenyl]-4-yl}-3-hydroxy-N-[(1 R)-1-phenylethyl]propenamide] | 74 ± 7% | 355 nM | – |
| CCCc1ccc(-c2ccc(N(C[C@H](N)CC(C)C)C(=O)N[C@@H](C)c3ccccc3)cc2)cc1 [Compound 51, 3-[(2R)-2-Amino-4-methylpentyl]-1-[(1 S)-1-phenylethyl]-3-{4′-propyl-[1,1′-biphenyl]-4-yl}urea] | 129 ± 4% | 1410 nM | – |
| CO[C@H](C)[C@H](N)CN(C(=O)N[C@@H](C)c1ccccc1)c1ccc(-c2ccc(C)cc2)cc1 [Compound 55, 3-[(2R,3R)-2-Amino-3-methoxybutyl]-1-[(1 S)-1-phenylethyl]-3-{4′-methyl-[1,1′-biphenyl]-4-yl}urea] | 114 ± 6% | 457 nM | – |
| CCOc1ccc(-c2ccc(N(C[C@@H](N)[C@@H](C)OC)C(=O)N[C@@H](C)c3ccccc3)cc2)cc1 [Compound 58, 3-[(2R,3R)-2-Amino-3-methoxybutyl]-1-[(1 S)-1-phenylethyl]-3-{4′-ethoxy-[1,1′-biphenyl]-4-yl}urea] | 102 ± 2% | 676 nM | – |
| CCCC(C)COc1ccc([C@@H](CO)C(=O)N[C@H](C)c2ccc(F)cc2)cc1 (stereo partly drawn) [Compound 12, (2S)—N-[(1 R)-1-(4-Fluorophenyl)ethyl]-3-hydroxy-2-{4-[(2-methylpentyl)oxy]phenyl}propenamide] | 92 ± 3% | – | – |
